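Protocol summary: plate cells (96-well), add compound at 5 concentrations, incubate 48 h, interpolate endpoints linearly. The concentration for 50% growth inhibition is given as GI50. TGI: concentration producing complete growth inhibition.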
Columns and labels:
Assay in all cases: growth of human tumour cells (NCI), 48 h
[1] = system: KM12 colon
[2] = system: MDA-MB-231 breast
[3] = system: OVCAR-4 ovarian
[4] = system: COLO 205 colon
[5] = system: RXF 393 renal
[6] = system: SF-295 CNS
[7] = system: SK-OV-3 ovarian
[8] = system: K-562 leukemia
[9] = system: PC-3 prostate
[10] = system: SK-MEL-5 melanoma
[11] = system: NCI-H226 lung
[12] = system: HL-60(TB) leukemia
[13] = system: HCT-116 colon
[14] = system: MALME-3M melanoma
[15] = system: SW-620 colon
[16] = system: SK-MEL-28 melanoma
[17] = system: UACC-62 melanoma
[18] = system: HOP-62 NSCLC
[19] = system: UO-31 renal
[20] = system: OVCAR-3 ovarian
[21] = system: A498 renal
[22] = system: HS 578T breast
[23] = system: SNB-75 CNS
[24] = system: MDA-MB-435
[25] = system: RPMI-8226 leukemia
[26] = system: CCRF-CEM leukemia
[27] = system: SF-539 CNS
[28] = system: SF-268 CNS
[29] = system: HCT-15 colon
[30] = system: ACHN renal
[31] = system: NCI-H522 lung
[32] = system: M14 melanoma
[33] = system: SNB-19 CNS
[34] = system: SR leukemia
[35] = system: 786-0 renal
[36] = system: IGROV1 ovarian
[37] = system: HCC-2998 colon
[38] = system: A549 NSCLC
[39] = system: OVCAR-8 ovarian
[40] = system: SK-MEL-2 melanoma
[41] = system: NCI-H23 lung
[42] = system: EKVX NSCLC
[43] = system: BT-549 breast
[44] = system: CAKI-1 renal
[45] = system: NCI/ADR-RES ovarian
[46] = system: MCF7 breast
[47] = system: HT29 colon
[48] = system: T-47D breast
[49] = system: SN12C renal
[50] = system: OVCAR-5 ovarian
[51] = system: UACC-257 melanoma
[52] = system: MOLT-4 leukemia
[53] = system: NCI-H460 lung
[54] = system: DU-145 prostate
[55] = system: LOX IMVI melanoma
[56] = system: U251 CNS
[57] = system: HOP-92 NSCLC

O=C(O)COc1ccc(OCC(=O)O)cc1
GI50 [1]: 1.71 µM | TGI [1]: 10.7 µM | GI50 [2]: 3.06 µM | TGI [2]: 16.2 µM | GI50 [3]: 2.96 µM | TGI [3]: 20.3 µM | GI50 [4]: 1.05 µM | TGI [4]: 13.4 µM | GI50 [5]: 0.97 µM | TGI [5]: 4.64 µM | GI50 [6]: 0.445 µM | TGI [6]: 11.3 µM | GI50 [7]: 0.644 µM | TGI [7]: 19.8 µM | GI50 [8]: 2.49 µM | TGI [8]: 16.6 µM | GI50 [9]: 2.03 µM | TGI [9]: 17.2 µM | GI50 [10]: 0.362 µM | TGI [10]: 2.31 µM | GI50 [11]: 0.19 µM | TGI [11]: 0.789 µM | GI50 [12]: 0.159 µM | TGI [12]: 0.873 µM | GI50 [13]: 0.612 µM | TGI [13]: 10.3 µM | GI50 [14]: 0.571 µM | TGI [14]: 10.5 µM | GI50 [15]: 0.312 µM | TGI [15]: 12.8 µM | GI50 [16]: 3.36 µM | TGI [16]: 17 µM | GI50 [17]: 0.326 µM | TGI [17]: 2.9 µM | GI50 [18]: 0.408 µM | TGI [18]: 8.53 µM | GI50 [19]: 5.4 µM | TGI [19]: 27.5 µM | GI50 [20]: 2.5 µM | TGI [20]: 36.3 µM | GI50 [21]: 1.06 µM | TGI [21]: 4.87 µM | GI50 [22]: 1.97 µM | TGI [22]: 13.6 µM | GI50 [23]: 0.684 µM | TGI [23]: 10.1 µM | GI50 [24]: 3.36 µM | TGI [24]: 16.4 µM | GI50 [25]: 0.343 µM | TGI [25]: 6.76 µM | GI50 [26]: 0.2 µM | TGI [26]: 21 µM | GI50 [27]: 0.365 µM | TGI [27]: 5.06 µM | GI50 [28]: 0.584 µM | TGI [28]: 13.5 µM | GI50 [29]: 9.43 µM | TGI [29]: > 100 µM | GI50 [30]: 0.522 µM | TGI [30]: 4.02 µM | GI50 [31]: 0.302 µM | TGI [31]: 3.22 µM | GI50 [32]: 0.847 µM | TGI [32]: 12.3 µM | GI50 [33]: 0.273 µM | TGI [33]: 11.3 µM | GI50 [34]: 0.0614 µM | TGI [34]: 12.7 µM | GI50 [35]: 0.456 µM | TGI [35]: 3.62 µM | GI50 [36]: 1.8 µM | TGI [36]: 33 µM | GI50 [37]: 1.5 µM | TGI [37]: 6.82 µM | GI50 [38]: 0.432 µM | TGI [38]: 2.16 µM | GI50 [39]: 0.911 µM | TGI [39]: 10.8 µM | GI50 [40]: 3.28 µM | TGI [40]: 15.9 µM | GI50 [41]: 0.513 µM | TGI [41]: 3.09 µM | GI50 [42]: 6.43 µM | TGI [42]: 74.4 µM | GI50 [43]: 1.47 µM | TGI [43]: 11.6 µM | GI50 [44]: 22.2 µM | TGI [44]: > 100 µM | GI50 [45]: 56.6 µM | TGI [45]: > 100 µM | GI50 [46]: 0.0567 µM | TGI [46]: 10.7 µM | GI50 [47]: 0.709 µM | TGI [47]: 11.6 µM | GI50 [48]: 0.449 µM | TGI [48]: 9.31 µM | GI50 [49]: 0.275 µM | TGI [49]: 18 µM | GI50 [50]: 1.43 µM | TGI [50]: 24.8 µM | GI50 [51]: 2.53 µM | TGI [51]: 18.5 µM | GI50 [52]: 0.0557 µM | TGI [52]: 23.5 µM | GI50 [53]: 0.0609 µM | TGI [53]: 1.51 µM | GI50 [54]: 0.325 µM | TGI [54]: 12.7 µM | GI50 [55]: 0.276 µM | TGI [55]: 2.34 µM | GI50 [56]: 0.251 µM | TGI [56]: 2.47 µM | GI50 [57]: 0.319 µM | TGI [57]: 7.59 µM

Reference: PubChem BioAssay (NCI)
